Data taken from patent US4505905A, “Cyclobutanone antibacterials” (E. I. Du Pont de Nemours and Company, priority 1982, dated 1985).
Values after ≈ are worked out from the molar mass of the structure shown. Like-named read-outs stand apart in the source and are kept apart here.

Assays:
[1] = tested on: penicillin-resistant Staphylococcus aureus strain; assay: Intrinsic antibacterial activity, microdilution method (MIC, compound alone); settings: for MIC: Staphylococcus aureus
[2] = tested on: penicillin-resistant Staphylococcus aureus strain; assay: Antibacterial activity in combination with benzyl penicillin, modified microdilution technique; settings: Table 4; for Effective Combination Concentrations: Units/mL Benzyl Penicillin: concentration of benzyl penicillin combined with the compound; for Effective Combination Concentrations: μg/mL Compound: concentration of compound in combination with benzyl penicillin
[3] = tested on: Bacillus cereus var. mycoides; assay: microbe, parasite or virus in culture; type: cell-based, Bacillus cereus var. mycoides: ATCC 11778; settings: for MIC: Bacillus cereus, read-out: MIC: μg/mL Compound Alone; for active against B. cereus var. mycoides: Table 6
[4] = tested on: Bacillus cereus var. mycoides; type: cell-based, Bacillus cereus var. mycoides: ATCC 11778; settings: Table 6; for Effective Combination Concentrations: Units/mL Benzyl Penicillin: concentration of benzyl penicillin combined with the compound; for Effective Combination Concentrations: μg/mL Compound: concentration of compound in combination with benzyl penicillin
[5] = target: Pencillinase Type I (a β-lactamase from Bacillus cereus) (Bacillus cereus, UniProt P00809); assay: Inhibition of the hydrolysis of penicillin G by Pencillinase Type I; type: biochemical; settings: penicillin G 0.6 mg/mL; enzyme 2.8 μg/mL; inhibitor 75 μg/mL; read-out: percent inhibition of hydrolysis of penicillin G
[6] = tested on: Penicillin Gresistant strain of Staphylococcus Aureus; assay: Survival of mice infected with a Penicillin G resistant strain of Staphylococcus Aureus; type: in vivo
Protocol: ^3 In mice infected with a Penicillin Gresistant strain of
Staphylococcus Aureus, the orally administered combination of 32, at 125
mg/kg of body weight, and Penicillin G, at 80 mg/kg of body weight, […]

[7] = read-out: MIC: μg/mL Compound Alone

Pencillinase Type I (a β-lactamase from Bacillus cereus), sequence (P00809 28-306): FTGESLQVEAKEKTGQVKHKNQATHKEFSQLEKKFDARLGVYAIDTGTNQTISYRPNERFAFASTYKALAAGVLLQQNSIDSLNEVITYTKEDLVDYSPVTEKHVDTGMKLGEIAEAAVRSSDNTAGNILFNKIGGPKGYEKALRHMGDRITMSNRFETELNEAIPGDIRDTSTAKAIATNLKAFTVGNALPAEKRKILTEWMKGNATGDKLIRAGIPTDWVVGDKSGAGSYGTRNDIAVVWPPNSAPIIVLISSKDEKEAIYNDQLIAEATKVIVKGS

O=C(OC(c1ccccc1)c1ccccc1)C1=C([S+]([O-])CCNC(=O)C(c2ccccc2)c2ccccc2)CC2CC(=O)C12 (stereo not drawn) [Compound 64]
MIC [1, 7]: > 100 µg/mL | Effective Combination Concentrations: Units/mL Benzyl Penicillin [2]: 20 Units/mL | Effective Combination Concentrations: μg/mL Compound [2]: 3.2 µg/mL

O=C(O)C1=C([S+]([O-])c2ccc([N+](=O)[O-])cc2)CC2CC(=O)C12 (stereo not drawn) [32+]
MIC [1, 7]: > 100 µg/mL | Effective Combination Concentrations: Units/mL Benzyl Penicillin [2]: 20 Units/mL | Effective Combination Concentrations: μg/mL Compound [2]: 12.5 µg/mL

CC(=O)NCC[S+]([O-])C1=C(C(=O)OC(c2ccccc2)c2ccccc2)C2C(=O)CC2C1 (stereo not drawn) [Compound 26]
MIC ([1]; read-out: Microdilution MIC): 100 µg/mL (≈ 221 µM)

O=C(OC(c1ccccc1)c1ccccc1)C1=C([S+]([O-])c2ccccc2)CC2CC(=O)C12 (stereo not drawn) [Compound 16, 3-Phenylsulfinyl-7-oxobicyclo[3.2.0]hept-2-en-2-carboxylic Acid, Diphenylmethyl Ester]
MIC ([1]; read-out: Microdilution MIC): 50 µg/mL (≈ 113 µM)

O=C(OC(c1ccccc1)c1ccccc1)C1=C(S(=O)(=O)c2ccccc2)CC2CC(=O)C12 (stereo not drawn) [Compound 20, 3-Phenylsulfonyl-7-oxobicyclo[3.2.0]hept-2-en-2-carboxylic Acid, Diphenylmethyl Ester]
MIC ([1]; read-out: Microdilution MIC): 100 µg/mL (≈ 218 µM)

C[C@H](O)[C@H]1C(=O)[C@@H]2C(C(=O)OC(c3ccccc3)c3ccccc3)=C([S+]([O-])c3ccccc3)C[C@@H]21 (relative stereo) [Compound 35, 3-Phenylsulfinyl-6-(1-hydroxyethyl)-7-oxobicyclo[3.2.0]hept-2-en-2-carboxylic Acid, Diphenylmethyl Ester]
MIC [3]: 25 µg/mL (≈ 51.4 µM) | active against B. cereus var. mycoides [3]: active | Effective Combination Concentrations: Units/mL Benzyl Penicillin [4]: 25 Units/mL | Effective Combination Concentrations: μg/mL Compound [4]: 3.2 µg/mL | MIC [1, 7]: 50 µg/mL (≈ 103 µM) | Effective Combination Concentrations: Units/mL Benzyl Penicillin [2]: 10 Units/mL | Effective Combination Concentrations: μg/mL Compound [2]: 6.3 µg/mL

Cc1onc(-c2ccccc2Cl)c1C(=O)N[C@@H]1C(=O)N2[C@@H]1SC(C)(C)[C@@H]2C(=O)O [cloxacillin, reference compound]
inhibition at 75 µg/mL [5]: 10 to 15%

CC1(C)S[C@@H]2[C@H](NC(=O)Cc3ccccc3)C(=O)N2[C@H]1C(=O)O [benzyl penicillin, reference compound]
Benzyl penicillin MIC ([3]; Table 6 footnote, alone): 100 units/mL | survival ([6]; Penicillin G by itself, 80 mg/kg): 33.3% | Minimum Inhibitory Concentration of Benzyl Penicillin ([1]; Table 4 footnote, alone): 100 units/mL | minimum inhibitory concentration (MIC) of benzyl penicillin ([1]; test isolate, benzyl penicillin alone): > 100 units per mL

O=C(OC(c1ccccc1)c1ccccc1)C1=C([S+]([O-])c2ccc([N+](=O)[O-])cc2)CC2CC(=O)C12 (stereo not drawn) [Compound 32, 3-(p-Nitrophenylsulfinyl)-7-oxobicyclo[3.2.0]hept-2-en-2-carboxylic Acid, Diphenylmethyl Ester]
MIC [3]: 6.3 µg/mL (≈ 12.9 µM) | active against B. cereus var. mycoides [3]: active | Effective Combination Concentrations: Units/mL Benzyl Penicillin [4]: 25 Units/mL | Effective Combination Concentrations: μg/mL Compound [4]: 1.5 µg/mL | survival rate ([6]; compound by itself at 500 mg/kg): 16.7% | survival ([6]; oral combination of 32 at 125 mg/kg and Penicillin G at 80 mg/kg): 83.3% | MIC [1, 7]: 25 µg/mL (≈ 51.3 µM) | Effective Combination Concentrations: Units/mL Benzyl Penicillin [2]: 5.0 Units/mL | Effective Combination Concentrations: Units/mL Benzyl Penicillin ([2]; listed as 32*): 10 Units/mL | Effective Combination Concentrations: μg/mL Compound [2]: 6.3 µg/mL

CC(=O)NCCSC1=C(C(=O)OC(c2ccccc2)c2ccccc2)C2C(=O)CC2C1 (stereo not drawn) [Compound 24, 3-(2'-Acetamidoethylthio)-7-oxobicyclo-[3.2.0]hept-2-en-2-carboxylic Acid, Diphenylmethyl Ester]
inhibition at 75 µg/mL [5]: 30 to 40% | MIC [1, 7]: > 100 µg/mL | Effective Combination Concentrations: Units/mL Benzyl Penicillin [2]: 20 Units/mL | Effective Combination Concentrations: μg/mL Compound [2]: 12.5 µg/mL

CC(=O)NCCSC1=C(C(=O)O)C2C(=O)CC2C1 (stereo not drawn) [Compound 25, 3-(2'-Acetamidoethylthio)-7-oxobicyclo[3.2.0]hept-2-en-2-carboxylic Acid]
inhibition at 75 µg/mL [5]: 10 to 15%

CC(=O)NCCSC1=C(C(=O)OCc2cccc3ccccc23)C2C(=O)CC2C1 (stereo not drawn) [Compound 28, 3-(2'-Acetamidoethylthio)-7-oxobicyclo[3.2.0]hept-2-en-2-carboxylic Acid, 1-Naphthylmethyl Ester]
MIC [1, 7]: > 100 µg/mL | Effective Combination Concentrations: Units/mL Benzyl Penicillin [2]: 20 Units/mL | Effective Combination Concentrations: μg/mL Compound [2]: 25 µg/mL

COC1(OC)C2C(C(=O)OC(c3ccccc3)c3ccccc3)=C(S(=O)(=O)c3ccccc3)CC2C1C(C)O (stereo not drawn) [Compound 79, 3-Phenylsulfonyl-6-(1-hydroxyethyl)-7,7-dimethoxybicyclo[3.2.0]hept-2-en-2-carboxylic Acid, Diphenylmethyl Ester]
MIC [1, 7]: > 100 µg/mL | Effective Combination Concentrations: Units/mL Benzyl Penicillin [2]: 20 Units/mL | Effective Combination Concentrations: μg/mL Compound [2]: 12.5 µg/mL

O=C(OC(c1ccccc1)c1ccccc1)C1=C(S(=O)(=O)c2ccc([N+](=O)[O-])cc2)CC2CC(=O)C12 (stereo not drawn) [Compound 73, 3-(p-Nitrophenylsulfonyl)-7-oxobicyclo[3.2.0]hept-2-en-2-carboxylic Acid, Diphenylmethyl Ester]
MIC [1, 7]: 50 µg/mL (≈ 99.3 µM) | Effective Combination Concentrations: Units/mL Benzyl Penicillin [2]: 1.25 Units/mL | Effective Combination Concentrations: μg/mL Compound [2]: 25 µg/mL

CC(=O)NCC[S+]([O-])C1=C(C(=O)OC(c2ccccc2)c2ccccc2)[C@H]2C(=O)[C@H]([C@H](C)O)[C@H]2C1 (relative stereo) [Compound 78, 3-(2-Acetamidoethylsulfinyl)-6-(1-hydroxyethyl)-7-oxobicyclo[3.2.0]hept-2-en-2-carboxylic Acid, Diphenylmethyl Ester]
MIC [1, 7]: 50 µg/mL (≈ 101 µM) | Effective Combination Concentrations: Units/mL Benzyl Penicillin [2]: 20 Units/mL | Effective Combination Concentrations: μg/mL Compound [2]: 12.5 µg/mL

O=C(OC(c1ccccc1)c1ccccc1)C1=CCC2C1C(=O)C2(Cl)C(O)c1ccccc1 (stereo not drawn) [Compound 75, 6-Chloro-6-(α'-hydroxybenzyl)-7-oxobicyclo[3.2.0]hept-2-en-2-carboxylic Acid, Diphenylmethyl Ester]
MIC [1, 7]: > 100 µg/mL | Effective Combination Concentrations: Units/mL Benzyl Penicillin [2]: 10 Units/mL | Effective Combination Concentrations: μg/mL Compound [2]: 6.3 µg/mL

O=C(OC(c1ccccc1)c1ccccc1)C1=CCC2CC(=O)C12 (stereo not drawn) [Compound 13, 7-Oxobicyclo[3.2.0]hept-2-en-2-carboxylic Acid, Diphenylmethyl Ester]
MIC [1, 7]: > 100 µg/mL | Effective Combination Concentrations: Units/mL Benzyl Penicillin [2]: 10 Units/mL | Effective Combination Concentrations: μg/mL Compound [2]: 12.5 µg/mL

CC(=O)NCC[S+]([O-])C1=C(C(=O)OCc2cccc3ccccc23)C2C(=O)CC2C1 (stereo not drawn) [Compound 29, 3-(2'-Acetamidoethylsulfinyl)-7-oxobicyclo[3.2.0]hept-2-en-2-carboxylic Acid, 1-Naphthylmethyl Ester]
MIC [1, 7]: 100 µg/mL (≈ 235 µM) | Effective Combination Concentrations: Units/mL Benzyl Penicillin [2]: 20 Units/mL | Effective Combination Concentrations: μg/mL Compound [2]: 25 µg/mL

CC(=O)NCCSC1=C(C(=O)OC(c2ccccc2)c2ccccc2)C2C(=O)[C@H]([C@H](C)O)[C@H]2C1 (relative stereo) [Compound 76, 3-(2-Acetamidoethylthio)-(1-hydroxyethyl)-7-oxobicyclo[3.2.0]hept-2-en-2-carboxylic Acid, Diphenylmethyl Ester]
MIC [1, 7]: > 100 µg/mL | Effective Combination Concentrations: Units/mL Benzyl Penicillin [2]: 10 Units/mL | Effective Combination Concentrations: μg/mL Compound [2]: 50 µg/mL
